Results on 8 molecules are retold here after patent US5362856A, “Monooxygenase-like activity of heme proteins” (University of Toronto Innovations Foundation, priority 1993, dated 1994).

The test system of data set [1] is hemoglobin-Fe(II). Nature of the data set: Effect of added agents on the sulfite/heme protein catalysed hydroxylation. Type of data set: biochemical. Particulars: agents in reasonable quantities.
For data set [2] the following is noted: 1 uM methemoglobin, 2.0 Mm anisole, 0.6 mM sodium sulfite, pH 7.0, 37 degrees C. Here is the method: The cleavage of anisole is a more demanding test of monooxygenase activity--see Galaris et. al., Arch. Biochem. Biophys., 1990, 281, 163 n., and Lindsay Smith et.al., J. Chem. Soc. Chem. Commun., 1982, 55. […] The reaction mixtures were preincubated for 5 mins at 37 degrees C. and then terminated by addition of ice-cold 20% trichloroacetic acid (for formaldehyde determination), or by addition of ice-cold diethyl ether and subsequent extraction with diethyl ether (for GC detection of the product phenol).

Data set [3] in a line: Aniline p-hydroxylation catalysed by myoglobin with sodium sulfite. Type of data set: biochemical. Particulars: 0.1 mL of 6 mM sodium sulphite, otherwise as Example 1. On the procedure:
An experiment was conducted exactly as described above in connection with Example 1, but using myoglobin Mb, 28 mg, MW18800, from Sigma, in place of Mt, and an amount of 0.1 mL of 6 mM sodium sulphite. Otherwise conditions and quantities were the same.

On to `[C-]#[O+]` [carbon monoxide], for which the “effect on the catalytic hydroxylation process” value (shortened to “effect”) in data set [1] is “inhibited”.
Still for that read-out and setting: the entry for `C[S+](C)[O-]` [dimethylsulfoxide] is “not subject to inhibition”; for `CCO` [ethanol] it is “not subject to inhibition”; for `OC[C@@H](O)[C@@H](O)[C@H](O)[C@H](O)CO` [mannitol] it is “not subject to inhibition”.
Consider methemoglobin, for which the “production of phenol and formaldehyde from anisole” value in data set [2] was found to be 140 pmol/min. Moreover, under “constant sodium sulfite concentration, 37 degrees C, pH 7.0”, the “kinetics of hydroxylation with respect to aniline” value is recorded as “follows Michaelis-Menten kinetics”. Also, the “kinetic mechanism on variation of sodium sulfite concentration” value (sodium sulfite 0.05-0.40 mM, Lineweaver-Burk plots (FIG. 2)) is on record as “ping-pong mechanism”.
“superoxide dismutase: enzyme added to test whether superoxide is involved in the hydroxylation”: in data set [1], the “effect” value is reported as “no effect”.

B1: myoglobin (protein, UniProt P68082 2-154, looked up)
Myoglobin: GLSDGEWQQVLNVWGKVEADIAGHGQEVLIRLFTGHPETLEKFDKFKHLKTEAEMKASEDLKKHGTVVLTALGGILKKKGHHEAELKPLAQSHATKHKIPIKYLEFISDAIIHVLHSKHPGDFGADAQGAMTKALELFRNDIAAKYKELGFQG
notes: myoglobin Mb, MW18800, from Sigma, used in place of Mt
Consider B1, for which, in data set [3], the “monooxygenase activity (aniline to p-aminophenol) compared with Mt of Example 1” value was “essentially similar result”.

B2: catalase: enzyme added to test whether peroxide is involved in the hydroxylation (protein, UniProt P00432 2-527, looked up)
Catalase: ADNRDPASDQMKHWKEQRAAQKPDVLTTGGGNPVGDKLNSLTVGPRGPLLVQDVVFTDEMAHFDRERIPERVVHAKGAGAFGYFEVTHDITRYSKAKVFEHIGKRTPIAVRFSTVAGESGSADTVRDPRGFAVKFYTEDGNWDLVGNNTPIFFIRDALLFPSFIHSQKRNPQTHLKDPDMVWDFWSLRPESLHQVSFLFSDRGIPDGHRHMNGYGSHTFKLVNANGEAVYCKFHYKTDQGIKNLSVEDAARLAHEDPDYGLRDLFNAIATGNYPSWTLYIQVMTFSEAEIFPFNPFDLTKVWPHGDYPLIPVGKLVLNRNPVNYFAEVEQLAFDPSNMPPGIEPSPDKMLQGRLFAYPDTHRHRLGPNYLQIPVNCPYRARVANYQRDGPMCMMDNQGGAPNYYPNSFSAPEHQPSALEHRTHFSGDVQRFNSANDDNVTQVRTFYLKVLNEEQRKRLCENIAGHLKDAQLFIQKKAVKNFSDVHPEYGSRIQALLDKYNEEKPKNAVHTYVQHGSHLSAREKANL
Turning to B2, the “effect” value in data set [1] was “no effect”.
